Measured values reported in US6921824B1, “Ruthenium dimeric complexes suitable as antimetastatic and antineoplastic agents” (priority 1999, dated 2005).
Marks after values point to notes of the source that are not given here.

What was measured:
[1] = tested on: murine TS/A adenocarcinoma cells; assay: In vitro cytotoxicity, MTT analysis (mitochondrial activity); assay type: cell-based
Procedure: (§1) In vitro cytotoxicity of complexes of the present invention on murine TS/A adenocarcinoma cells.
(§2) 4×10^3 murine TS/A adenocarcinoma cells resuspended in 200 μl RPMI-1640 medium supplemented with 10% FCS (fetal calf serum), 2 mM glutamine and 50 μg/ml gentamicin sulphate, were seeded in a 96-wells plate. After 24 hours incubation at 37° C., in 5% CO2, the complexes as described in example 4 (A), in example 7 (B), in example 8 (C) and in example 10 (D), each solubilised in RPMI-1640 medium supplemented with 5% FCS, 2 mM glutamine and 50 μg/ml gentamicin sulphate, were added to the cells, each at a final concentration of 10^−4, 10^−5 and 10^−6 M. Cell viability tests were performed after 24, 48 and 72 hours of exposure to the compounds by assessing both the effect on protein synthesis and on mitochondrial activity by means of colorimetric assays, respectively the solphorodamine B test (SRB) and the MTT analysis. Each value (optical density) is the average percentage ±S.E. versus the untreated controls.
(§3) Values such as *p<0.05, **p<0.01 indicate average values statistically different from the controls. Analysis of Variance and Dunnet test were used in the comparison analysis.
(§4) The results are reported in Table 3, wherein both the effect on protein synthesis (SRB) and the mitochondrial activity (MTT) are reported for each complexes tested at different dosages after different exposure time.

[2] = LD0.05 determination, intraperitoneal treatment for 6 consecutive days (Lichtfield and Wilcoxon); assay type: in vivo; conditions: observation time 10 days since last dose
Procedure: The dosages corresponding to the LD0.05, calculated separately in animals of the same strain and gender and having the same body weight, was administered intraperitoneally for 6 consecutive days, according to the method of Lichtfield and Wilcoxon, and with an observation time of 10 days since last dose.

MCa mammary carcinoma = assay: Pre-surgical treatment: prevention of lung metastases formation in mice with MCa mammary carcinoma; assay type: in vivo; conditions: for Lung metastases Number % T/C / Lung metastases weight % T/C: Treated/Control; for Lung metastases Number mean / Lung metastases weight (mg) mean: evaluated day 29; for Body weight % var: variation day 11 to day 16 vs untreated controls
Procedure: In vivo tests of the activity of the compounds according to the present invention in mice affected from MCa mammary carcinoma: prevention activity in the formation of lung metastases.
Five groups of CBA kin female mice weighing 23±3 g were inoculated with […] viable cells (as determined by the Trypan blue exclusion) of MCa mammary carcinoma in 0.05 ml Dulbecco's pH 7.4 buffered calcium and magnesium-free solution (PBS), by intramuscular injection with a sterile insulin syringe. The tumour cells were derived from donors of the same strain, injected with the same tumour cells, following the same procedures 2 weeks before. The suspension of tumour cells was prepared in PBS by mechanically mincing the tumour mass obtained from donor mice, and further removing tissue debris and cells by, respectively, filtration through a double layer of sterile gauze and centrifugation at 250× g for 10 minutes. Kin animals were obtained from a colony from Chester Beatthy from London (UK) which were grown in the University of Trieste animal house accordingly to the procedures accepted for the rearing of kin animals. The MCa mammary carcinoma tumour cell-line derived from a stock, stored in liquid nitrogen, of tumour cells obtained originally from Rudjer Boskovic Institute of Zagreb (HR).
From day 11 to day 16, after tumour cells implantation, five mice groups were treated intraperitoneally with a sterile insulin syringe, respectively with: • Group 1 Control (10 animals): 10 ml/kg of body weight/day of sterile and pyrogen-free physiological solution; • Group 2 (two subgroups a,b of five animals each): 7.5 (a), 15 (b) mg/kg of body weight/day of the compound prepared as described in Example 4 in sterile and pyrogen-free physiological solution; • Group 3 (2 subgroups c,d of five animals each): 15 (c), 30 (d) mg/kg of body weight/day of the compound prepared as described in Example 7 in sterile and pyrogen-free physiological solution; • Group 4 (2 subgroups e,f of 5 animals each): 25 (e), 50 (f) mg/kg of body weight/day of the compound prepared as described in Example 8 in sterile and pyrogen-free physiological solution; • Group 5 (2 subgroups g,h of 5 animals each): 12.5 (g), 25 (h) mg/kg of body weight/day of the compound prepared as described in Example 10 in sterile and pyrogen-free physiological solution.
The administered dosages were either approximated to LD0.1, or to half of it or to a quarter of it, as calculated separately in animals of the same strain and gender and with the same body weight, for an intraperitoneal treatment lasting 6 consecutive days, according to the method of Lichtfield and Wilcoxon, and with an observation time of 10 days since the last dose.
On day 17 since tumour cells implantation, the primary tumour was surgically removed, after general anesthesia of the animals by intraperitoneal injection of 125 mg/kg of Ketamine.
On day 29 since tumour cells implantation, the mice were sacrificed by cervical dislocation for the evaluation of lung metastases. The lungs were abducted from the animals immediately after sacrifice, divided in single lobes which then examined immediately with a low-magnification microscope equipped with a graduated ocular-grid for the measurement of the size of the metastases in which the a and b orthogonal axes (a≦b) were identified. Metastases were classified by size and the metastatic tumour weight for each animal was calculated as the sum of each single metastasis weight, each of them considered as a rotation solid developed around the above mentioned axes and calculated according to the formula (π/6)·a^2·b. The experimental data obtained were then processed by appropriate statistical tests. […]

[3] = tested on: murine TS/A adenocarcinoma cells; assay: In vitro cytotoxicity, SRB test (protein synthesis); assay type: cell-based
Procedure: as §1, §2, §3, §4

[4] = 7.5 mg/kg/die i.p. day 11-16, pre-surgical
[5] = 15 mg/kg/die i.p. day 11-16, pre-surgical
[6] = at two dose levels, pre-surgical treatment

C[SH](C)(=O)[Ru-]([Cl])([Cl])([Cl])([Cl])[n+]1cc[n+]([Ru-]([Cl])([Cl])([Cl])([Cl])[SH](C)(C)=O)cc1.[Na+].[Na+] [Example 4, [Na]2[trans-RuCl4(Me2SO)]2(μ-pyz)]
MTT optical density, average percentage ±S.E. versus untreated controls ([1]; 10^−4 M, exposure time 24 h): 34 ± 1** %
MTT optical density, average percentage ±S.E. versus untreated controls ([1]; 10^−4 M, exposure time 48 h): 50 ± 7** %
MTT optical density, average percentage ±S.E. versus untreated controls ([1]; 10^−4 M, exposure time 72 h): 59 ± 1** %
MTT optical density, average percentage ±S.E. versus untreated controls ([1]; 10^−5 M, exposure time 24 h): 100 ± 10%
MTT optical density, average percentage ±S.E. versus untreated controls ([1]; 10^−5 M, exposure time 48 h): 108 ± 12%
MTT optical density, average percentage ±S.E. versus untreated controls ([1]; 10^−5 M, exposure time 72 h): 93 ± 4%
MTT optical density, average percentage ±S.E. versus untreated controls ([1]; 10^−6 M, exposure time 24 h): 105 ± 10%
MTT optical density, average percentage ±S.E. versus untreated controls ([1]; 10^−6 M, exposure time 48 h): 101 ± 9%
MTT optical density, average percentage ±S.E. versus untreated controls ([1]; 10^−6 M, exposure time 72 h): 89 ± 2%
LD0.05 [2]: 28 mg/kg of body weight/day
Lung metastases Number % T/C (MCa mammary carcinoma; [4]): 27%
Lung metastases weight % T/C (MCa mammary carcinoma; [4]): 10%
Lung metastases Number mean (MCa mammary carcinoma; [4]): 14.0
Lung metastases weight (mg) mean (MCa mammary carcinoma; [4]): 8 mg
Body weight % var (MCa mammary carcinoma; 7.5 mg/kg/die i.p. day 11-16): −4.6%
Lung metastases Number % T/C (MCa mammary carcinoma; [5]): 4%
Lung metastases weight % T/C (MCa mammary carcinoma; [5]): 0%
Lung metastases Number mean (MCa mammary carcinoma; [5]): 2.0
Lung metastases weight (mg) mean (MCa mammary carcinoma; [5]): 0.2 mg
Body weight % var (MCa mammary carcinoma; 15 mg/kg/die i.p. day 11-16): −3.3%
Selectivity of action on lung metastases versus primary tumour (MCa mammary carcinoma; MCa mammary carcinoma model of the CBA mouse): act selectively on lung metastases
Number of lung metastases (in words) (MCa mammary carcinoma; [6]): marked reduction
Weight of lung metastases (in words) (MCa mammary carcinoma; [6]): even more marked reduction
SRB optical density, average percentage ±S.E. versus untreated controls ([3]; 10^−4 M, exposure time 24 h): 32 ± 1** %
SRB optical density, average percentage ±S.E. versus untreated controls ([3]; 10^−4 M, exposure time 48 h): 51 ± 2** %
SRB optical density, average percentage ±S.E. versus untreated controls ([3]; 10^−4 M, exposure time 72 h): 66 ± 2** %
SRB optical density, average percentage ±S.E. versus untreated controls ([3]; 10^−5 M, exposure time 24 h): 99 ± 5%
SRB optical density, average percentage ±S.E. versus untreated controls ([3]; 10^−5 M, exposure time 48 h): 95 ± 1%
SRB optical density, average percentage ±S.E. versus untreated controls ([3]; 10^−5 M, exposure time 72 h): 95 ± 2%
SRB optical density, average percentage ±S.E. versus untreated controls ([3]; 10^−6 M, exposure time 24 h): 112 ± 3%
SRB optical density, average percentage ±S.E. versus untreated controls ([3]; 10^−6 M, exposure time 48 h): 102 ± 5%
SRB optical density, average percentage ±S.E. versus untreated controls ([3]; 10^−6 M, exposure time 72 h): 107 ± 2%
Antiproliferative activity (in words) ([3]; SRB and MTT, up to 72 h): scarce and reversible
